Experimental data reported in article PMC11995216, “End-to-End Backbone Cyclization Enhances Passive Permeability of bRo5 Oligomeric Depsipeptides with Nonlinear Size Dependence” (ACS Medicinal Chemistry Letters, 2025).
Values joined by “and” are separate entries in the source; they are usually repeats but may differ in a detail not shown here. Identical values can stand only once. Like-named read-outs stand apart in the source and are kept apart here.

Legend:
in vitro = conditions: PAMPA, Papp
[1] = initial concentration 500 uM, standard curve, UV detection
[2] = calculated using Supplement Equation 1, UV detection
PAMPA [3] = conditions: UV detection, initial concentration 500 uM
[4] = PAMPA, 500 uM
[5] = UV detection
PAMPA [6] = conditions: UV detection
[7] = Acceptor Concentration (uM) / experiment 1
[8] = Acceptor Concentration (uM) / experiment 2
[9] = Acceptor Concentration (uM) / experiment 3
[10] = Acceptor Concentration (uM) / experiment 4
[11] = Acceptor Concentration (uM) / experiment 5
[12] = Acceptor Concentration (uM) / experiment 6
[13] = Acceptor Concentration (uM) / experiment 7
[14] = Acceptor Concentration (uM) / experiment 8
[15] = Acceptor Concentration (uM) / experiment 9
[16] = Acceptor Concentration (uM) / experiment 10
[17] = Papp (x 10^-6 cm/s) / experiment 1
[18] = Papp (x 10^-6 cm/s) / experiment 2
[19] = Papp (x 10^-6 cm/s) / experiment 3
[20] = Papp (x 10^-6 cm/s) / experiment 4
[21] = Papp (x 10^-6 cm/s) / experiment 5
[22] = Papp (x 10^-6 cm/s) / experiment 6
[23] = Papp (x 10^-6 cm/s) / experiment 7
[24] = Papp (x 10^-6 cm/s) / experiment 8
[25] = Papp (x 10^-6 cm/s) / experiment 9
[26] = Papp (x 10^-6 cm/s) / experiment 10

| Compound | Papp at 500 uM (in vitro) [×10⁻⁶ cm/s] | donor concentration after incubation ([1]; Well 1 / [donor], Well 1) | donor concentration after incubation ([1]; Well 2 / [donor], Well 2) | donor concentration after incubation ([1]; Well 3 / [donor], Well 3) | donor concentration after incubation ([1]; Well 4 / [donor], Well 4) | donor concentration after incubation ([1]; Well 5 / [donor], Well 5) | %T ([2]; Well 1 / %T, Well 1) | %T ([2]; Well 2 / %T, Well 2) | %T ([2]; Well 3 / %T, Well 3) | %T ([2]; Well 4 / %T, Well 4) | %T ([2]; Well 5 / %T, Well 5) | Acceptor Concentration (PAMPA [3]; [7]) [µM] | Acceptor Concentration (PAMPA [3]; [8]) [µM] | Acceptor Concentration (PAMPA [3]; [9]) [µM] | Acceptor Concentration (PAMPA [3]; [10]) [µM] | Acceptor Concentration (PAMPA [3]; [11]) [µM] | Acceptor Concentration (PAMPA [3]; [12]) [µM] | Acceptor Concentration (PAMPA [3]; [13]) [µM] | Acceptor Concentration (PAMPA [3]; [14]) [µM] | Acceptor Concentration (PAMPA [3]; [15]) [µM] | other results |
| --- | --- | --- | --- | --- | --- | --- | --- | --- | --- | --- | --- | --- | --- | --- | --- | --- | --- | --- | --- | --- | --- |
| CCCCC[C@H](OC(=O)[C@@H](C)N(C)C(=O)OC(C)(C)C)C(=O)OCc1ccccc1 [Compound L1.1] | 4.3 ± 0.6 | 339 µM and 383 µM | 384 µM and 381 µM | 406 µM and 335 µM | 363 µM and 315 µM | 360 µM and 379 µM | 0.56% and 0.55% | 0.51% | 0.44% and 0.55% | 0.52% and 0.62% | 0.49% and 0.52% | 97.9 | 95.4 | 79.7 | 94.3 | 84.7 | 107 | 95.8 | 92.9 | 107 | Acceptor Concentration (PAMPA [3]; [16]): 97.4 µM; Acceptor Concentration, Ave [4]: 95.2 µM; Δ % diffusion [4]: ↑22%; % recovery ([5]; Well 1 / %R, Well 1): 87% and 98%; % recovery ([5]; Well 2 / %R, Well 2): 96% and 95%; % recovery ([5]; Well 3 / %R, Well 3): 97% and 86%; % recovery ([5]; Well 4 / %R, Well 4): 91% and 84%; % recovery ([5]; Well 5 / %R, Well 5): 89% and 95%; Papp (PAMPA [6]; [17]): 4.67 ×10⁻⁶ cm/s; Papp (PAMPA [6]; [18]): 4.06 ×10⁻⁶ cm/s; Papp (PAMPA [6]; [19]): 3.27 ×10⁻⁶ cm/s; Papp (PAMPA [6]; [20]): 4.23 ×10⁻⁶ cm/s; Papp (PAMPA [6]; [21]): 3.87 ×10⁻⁶ cm/s; Papp (PAMPA [6]; [22]): 4.51 ×10⁻⁶ cm/s; Papp (PAMPA [6]; [23]): 4.1 ×10⁻⁶ cm/s; Papp (PAMPA [6]; [24]): 4.51 ×10⁻⁶ cm/s; Papp (PAMPA [6]; [25]): 5.45 ×10⁻⁶ cm/s; Papp (PAMPA [6]; [26]): 4.19 ×10⁻⁶ cm/s |
| CCCCC[C@H](OC(=O)[C@@H](C)N(C)C(=O)[C@H](CCCCC)OC(=O)[C@@H](C)N(C)C(=O)[C@H](CCCCC)OC(=O)[C@@H](C)N(C)C(=O)OC(C)(C)C)C(=O)OCc1ccccc1 [Compound L1.3] | 3.54 ± 0.2 | 358 µM | 382 µM and 379 µM | 378 µM and 351 µM | 350 µM and 346 µM | 351 µM and 360 µM | 0.44% and 0.49% | 0.47% and 0.46% | 0.46% | 0.49% and 0.46% | 0.47% and 0.43% | 84.1 | 80.7 | 74.5 | 72.5 | 68.1 | 71.8 | 84 | 79 | 81.4 | Acceptor Concentration (PAMPA [3]; [16]): 75.6 µM; LogPapp [4]: -5.45 ± 0.02; Δ % diffusion [4]: ↑3%; % recovery ([5]; Well 1 / %R, Well 1): 86% and 89%; % recovery ([5]; Well 2 / %R, Well 2): 93% and 92%; % recovery ([5]; Well 3 / %R, Well 3): 91% and 85%; % recovery ([5]; Well 4 / %R, Well 4): 86% and 84%; % recovery ([5]; Well 5 / %R, Well 5): 85% and 86%; Papp (PAMPA [6]; [17]): 3.86 ×10⁻⁶ cm/s; Papp (PAMPA [6]; [18]): 3.52 ×10⁻⁶ cm/s; Papp (PAMPA [6]; [19]): 3.52 ×10⁻⁶ cm/s; Papp (PAMPA [6]; [20]): 3.49 ×10⁻⁶ cm/s; Papp (PAMPA [6]; [21]): 3.18 ×10⁻⁶ cm/s; Papp (PAMPA [6]; [22]): 3.34 ×10⁻⁶ cm/s; Papp (PAMPA [6]; [23]): 3.62 ×10⁻⁶ cm/s; Papp (PAMPA [6]; [24]): 3.46 ×10⁻⁶ cm/s; Papp (PAMPA [6]; [25]): 3.83 ×10⁻⁶ cm/s; Papp (PAMPA [6]; [26]): 3.57 ×10⁻⁶ cm/s |
